Test results reported in patent US7395112B2, “Method and apparatus for treating tumors using low strength electric fields” (priority 2002, dated 2008).

System: CT-26 colon carcinoma
Experiment: LEF with chemotherapy (LEFCT-EC) in mice bearing 5 mm CT-26 tumors
Type: in vivo, BALB/C mice
Experimental: Mice: BALB/C male mice were obtained from the breeding colony of Tel-Aviv University, Israel. Mice were used at 8-12 weeks of age. Animal care and experimentation were performed in accordance with the Tel-Aviv University guidelines.
Tumor: Colon carcinoma tumors were grown in mice with CT-26, a metastatic colon carcinoma cell line induced in a BALB/c mouse by chemical carcinogenesis. Cells were cultured in Dulbecco's modified Eagle's medium (DMEM) supplemented with 100 U/ml penicillin, 100 μg/ml streptomycin, 2 mM L-glutamine; 1 mM sodium pyruvate; 1% non-essential amino acid solution; 10% heat-inactivated fetal calf serum. Cultures were maintained at 37° C. in a humidified incubator with a 5% CO2 atmosphere.
Tumor cell inoculation: Mice were inoculated intracutaneously with 10^5 CT-26 cells suspended in 100 μL PBS into the low lateral side of the back. Local tumor growth was determined by measuring three mutually orthogonal tumor diameters with a caliper. The volume of tumor was calculated using the formula: Vol=D1×D2×D3×π/6, where D1, D2, D3 are three mutually orthogonal tumor diameters.
Low-strength electric field stimulation: To subject tumors to LEFs, stainless steel needles were used as electrodes. Tumors 5 mm in diameter (about 65 mm^3) were transfixed by electrode needles, with one cathode in the center of the tumor and three or four peripheral anodes. The electrodes were connected to an electric pulse generator and to an oscilloscope. Pulsed LEFs with a repetition frequency of 500 Hz and a pulse width of 180 μs were applied at 20, 40, 60 and 70 V/cm for a duration 12 min or 20 min. The electric pulses were administered 2-4 min following chemotherapeutic drug administration. Mice were anesthetized 10 min before the procedure.
Chemotherapeutic agents: Bleomycin (Sigma Israel Chemicals Ltd., Israel; Megapharm Ltd., Israel) was kept at a temperature of 2-8° C., and was dissolved in pyrogen-free PBS to a concentration enabling dosages of 50 U/kg body weight prior to use. BCNU was administered at a dosage of 35 mg/kg body weight, and 5-FU (Abic, Israel) was used at a dose of 100 mg/kg body weight.
Anesthesia: Mice were anesthetized using an anesthetic cocktail comprising a dose of imalgen at 100 mg/kg body weight and xylazine hydrochloride at 6.25 mg/kg body weight dissolved in PBS injected intraperitoneally in a volume of 0.25 ml per mouse 10 min prior to LEF treatment.
Statistical analysis: Survival times (Kaplan-Meir test), survival comparisons between groups (Mantel-Cox test), and tumor volume differences between groups were plotted using StatSoft “Statistica” statistical software.
Effect of LEF duration and strength on potentiation of bleomycin for treatment of colon carcinoma: In order to determine the optimal LEFCT-EC/bleomycin therapy for treatment of colon cancer, mice bearing CT-26 tumors were treated with LEFs of 40 V/cm for 12 min, and 20 V/cm for 12 or 20 min with or without administration of bleomycin, and survival was analyzed.

bleomycin
survival with bleomycin + LEF compared with LEF alone (LEF 40 V/cm 12 min, 20 V/cm 12 or 20 min, all combinations tested): greatly enhanced | cure rate (LEFCT-EC: drug + LEF 40 V/cm 12 min, 5 mm tumors): 33% | tumor size with drug + LEF relative to drug only (after 21 days): less than half the size | survival rate (bleomycin intratumoral + LEF 40 V/cm 12 min, after 60 days, unchanged until day 120): 33% | time after which half the mice died (drug alone, no LEF, intratumoral injection (5-FU intratumoral or intravenous), 5 mm tumors): about 51 days
